Results reported in patent US20230086703A1, “N-(4-(5-chloropyridin-3-yl)phenyl)-2-(2-(cyclopropanesulfonamido)pyrimidin-4-yl) butanamide derivatives and related compounds as human CTPS1 inhibitors for the treatment of proliferative diseases” (Step Pharma S.A.S., priority 2019, published 2023).

Target: T1, human CTPS1 (Homo sapiens, UniProt P17812)
T1 construct: FLAG (with GG linker); His8 (with GG linker); purchased Proteros biostructures GmbH
T1 sequence (P17812 1-591): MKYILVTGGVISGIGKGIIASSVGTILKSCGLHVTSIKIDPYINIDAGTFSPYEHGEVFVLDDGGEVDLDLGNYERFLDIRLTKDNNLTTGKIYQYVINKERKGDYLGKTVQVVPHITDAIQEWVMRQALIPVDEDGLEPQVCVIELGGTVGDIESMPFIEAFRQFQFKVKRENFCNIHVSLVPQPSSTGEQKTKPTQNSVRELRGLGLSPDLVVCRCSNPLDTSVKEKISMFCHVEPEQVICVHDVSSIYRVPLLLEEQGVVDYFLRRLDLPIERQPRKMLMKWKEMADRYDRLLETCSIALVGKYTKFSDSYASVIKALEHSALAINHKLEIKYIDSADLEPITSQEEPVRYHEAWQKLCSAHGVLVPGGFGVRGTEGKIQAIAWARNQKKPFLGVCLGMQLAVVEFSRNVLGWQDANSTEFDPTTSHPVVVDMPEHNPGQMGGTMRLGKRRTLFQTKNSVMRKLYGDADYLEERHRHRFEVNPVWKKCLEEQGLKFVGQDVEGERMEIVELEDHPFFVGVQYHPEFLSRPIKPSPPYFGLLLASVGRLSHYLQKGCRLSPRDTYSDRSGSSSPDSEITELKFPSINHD
Test: RapidFire/MS-based enzyme selectivity assay (human CTPS1 versus CTPS2), CTPS1 isoform
Assay type: biochemical
Outline: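 Full-length C-terminal FLAG-His-tagged CTPS1 (1-591) was preincubated 10 min at 25 °C with compound in HEPES pH 8.0 buffer with MgCl2, KCl, DTT and Tween-20. Reactions were started with a 2× mix of ATP 0.3 mM, UTP 0.2 mM, GTP 0.07 mM and L-glutamine 0.1 mM, and run in the linear phase at 25 °C. IC50 comes from the RapidFire-MS ratio of CTP to 13C9-15N3-CTP.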

[1] = RapidFire/MS IC50 values of CTPS1 and CTPS2, Table 15
[2] = Table 16, human CTPS1 over human CTPS2, RapidFire/MS IC50 values

| SMILES | Selectivity (fold selectivity between CTPS1 and CTPS2) [1] | Selectivity (fold selectivity between CTPS1 and CTPS2) [2] | further results |
| --- | --- | --- | --- |
| CCOc1cncc(-c2ccc(NC(=O)C(C)(CC)c3ccnc(NS(=O)(=O)C4CC4)n3)nc2)n1 (centres unmarked) [P163, 2-(2-(cyclopropanesulfonamido)pyrimidin-4-yl)-N-(5-(6-ethoxypyrazin-2-yl)pyridin-2-yl)-2-methylbutanamide] | +++ (>60 fold (+++)) |  |  |
| CCOc1cncc(-c2ccc(NC(=O)C(CCOC)c3ccnc(NS(=O)(=O)C4CC4)n3)nc2)n1 (centres unmarked) [P145, 2-(2-(cyclopropanesulfonamido)pyrimidin-4-yl)-N-(5-(6-ethoxypyrazin-2-yl)pyridin-2-yl)-4-methoxybutanamide] | +++ (>60 fold (+++)) |  |  |
| CC(C)(C(=O)Nc1ccc(-c2cccnc2)cc1)c1ccnc(NS(=O)(=O)C2CC2)n1 [P59, 2-(2-(cyclopropanesulfonamido)pyrimidin-4-yl)-2-methyl-N-(4-(pyridin-3-yl)phenyl)propanamide] | + (2-30 fold (+)) |  |  |
| CCC(C(=O)Nc1ccc(-c2cncc(OC)n2)cn1)c1ccnc(NS(=O)(=O)C2CC2)n1 (centres unmarked) [P159, 2-(2-(cyclopropanesulfonamido)pyrimidin-4-yl)-N-(5-(6-methoxypyrazin-2-yl)pyridin-2-yl)butanamide] | +++ (>60 fold (+++)) |  |  |
| CCOc1cncc(-c2ccc(NC(=O)C3(c4cncc(NS(=O)(=O)C5CC5)n4)CCOCC3)nc2)n1 [P197, 4-(6-(cyclopropanesulfonamido)pyrazin-2-yl)-N-(5-(6-ethoxypyrazin-2-yl)pyridin-2-yl)tetrahydro-2H-pyran-4-carboxmaide] | +++ (>60 fold (+++)) |  |  |
| CCC(C(=O)Nc1ncc(-c2cncc(OC)n2)cc1F)c1ccnc(NS(=O)(=O)C2CC2)n1 (centres unmarked) [P158, 2-(2-(cyclopropanesulfonamido)pyrimidin-4-yl)-N-(3-fluoro-5-(6-methoxypyrazin-2-yl)pyridin-2-yl)butanamide] | + (2-30 fold (+)) |  |  |
| CCOc1cncc(-c2ccc(NC(=O)C(C)(C)c3ccnc(NS(=O)(=O)C4CC4)n3)nc2)n1 [P31, 2-(2-(cyclopropanesulfonamido)pyrimidin-4-yl)-N-(5-(6-ethoxypyrazin-2-yl)pyridin-2-yl)-2-methylpropanamide] | +++ (>60 fold (+++)) |  |  |
| CCOc1cncc(-c2ccc(NC(=O)C(CC)c3cncc(NS(=O)(=O)C4CC4)n3)cc2)n1 (centres unmarked) [P202, 2-(6-(cyclopropanesulfonamido)pyrazin-2-yl)-N-(4-(6-ethoxypyrazin-2-yl)phenyl)butanamide] | +++ (>60 fold (+++)) |  |  |
| CCOc1cncc(-c2ccc(NC(=O)C(F)(CC)c3ccnc(NS(=O)(=O)C4CC4)n3)nc2)n1 (single isomer, unassigned) [P113, 2-(2-(Cyclopropanesulfonamido)pyrimidin-4-yl)-N-(5-(6-ethoxypyrazin-2-yl)pyridin-2-yl)-2-fluorobutanamide] | + (2-30 fold (+)) |  |  |
| CCOc1cncc(-c2ccc(NC(=O)C(F)(CC)c3ccnc(NS(C)(=O)=O)n3)nc2)n1 (centres unmarked) [P151, N-(5-(6-ethoxypyrazin-2-yl)pyridin-2-yl)-2-fluoro-2-(2-(methylsulfonamido)pyrimidin-4-yl)butanamide] | +++ (>60 fold (+++)) |  |  |
| CCOc1cncc(-c2ccc(NC(=O)C(C)(C)c3cncc(NS(=O)(=O)C4CC4)n3)cc2)n1 [P196, 2-(6-(cyclopropanesulfonamido)pyrazin-2-yl)-N-(4-(6-ethoxypyrazin-2-yl)phenyl)-2-methylpropanamide] | +++ (>60 fold (+++)) |  |  |
| CCOc1cncc(-c2ccc(C(=O)NCc3ccnc(NS(=O)(=O)C4CC4)n3)cc2)n1 [P118, N-((2-(cyclopropanesulfonamido)pyrimidin-4-yl)methyl)-4-(6-ethoxypyrazin-2-yl)benzamide] | +++ (>60 fold (+++)) |  |  |
| CCOc1cncc(-c2ccc(NC(=O)C3(c4ccnc(NS(=O)(=O)C5CC5)n4)CCC(F)(F)CC3)nc2)n1 [P242] |  |  | Selectivity (fold selectivity between CTPS1 and CTPS2) (RapidFire/MS IC50 values of CTPS1 and CTPS2, Table 17): +++ (>60 fold (+++)) |
| CC(C)Oc1cncc(-c2ccc(NC(=O)Cc3ccnc(NS(=O)(=O)C4CC4)n3)c(F)c2)n1 [P12, 2-(2-(cyclopropanesulfonamido)pyrimidin-4-yl)-N-(2-fluoro-4-(6-isopropoxypyrazin-2-yl)phenyl)acetamide] | ++ (>30-60 fold (++)) |  |  |

Continued, in another order:

| Selectivity (fold selectivity between CTPS1 and CTPS2) [1] | Selectivity (fold selectivity between CTPS1 and CTPS2) [2] | SMILES | further results |
| --- | --- | --- | --- |
|  | + (2-30 fold (+)) | CCC(NC(=O)c1ccc(-c2cncc(C(F)(F)F)n2)cc1)c1csc(NS(=O)(=O)C2CC2)n1 (centres unmarked) [R5, N-(1-(2-(cyclopropanesulfonamido)thiazol-4-yl)propyl)-4-(6-(trifluoromethyl)pyrazin-2-yl)benzamide] |  |
|  | ++ (>30-60 fold (++)) | COCCC(NC(=O)c1ccc(-c2cncc(C(F)(F)F)n2)cc1F)c1csc(NS(=O)(=O)C2CC2)n1 (centres unmarked) [R87, N-(1-(2-(cyclopropanesulfon-amido)thiazol-4-yl)-3-methoxypropyl)-2-fluoro-4-(6-(trifluoromethyl)pyrazin-2-yl)benzamide] |  |
| + (2-30 fold (+)) |  | CCOc1cncc(-c2ccc(NC(=O)C(F)(CC)c3cncc(NS(=O)(=O)C4CC4)n3)nc2)n1 (single isomer, unassigned) [P207, 2-(6-(cyclopropanesulfonamido)pyrazin-2-yl)-N-(5-(6-ethoxypyrazin-2-yl)pyridin-2-yl)-2-fluorobutanamide] |  |
|  | +++ (>60 fold (+++)) | CC(C)Oc1cncc(-c2ccc(C(=O)NC(C)(C)c3csc(NS(=O)(=O)C4CC4)n3)cc2)n1 [R56, N-(2-(2-(cyclopropanesulfon-amido)thiazol-4-yl)propan-2-yl)-4-(6-isopropoxypyrazin-2-yl)benzamide] |  |
|  | ++ (>30-60 fold (++)) | Cc1cc(-c2cncc(C(F)(F)F)n2)ccc1C(=O)NC(C)(C)c1csc(NS(=O)(=O)C2CC2)n1 [R45, N-(2-(2-(cyclopropanesulfonamido)thiazol-4-yl)propan-2-yl)-2-methyl-4-(6-(trifluoromethyl)pyrazin-2-yl)benzamide] |  |
|  | + (2-30 fold (+)) | CCOc1cncc(-c2ccc(C(=O)N(C)C(CC)c3csc(NS(=O)(=O)C4CC4)n3)c(F)c2)n1 (racemic) [R63, N-(1-(2-(cyclopropanesulfonamido)thiazol-4-yl)propyl)-4-(6-ethoxypyrazin-2-yl)-2-fluoro-N-methylbenzamide] |  |
|  | ++ (>30-60 fold (++)) | CCOc1cncc(-c2ccc(C(=O)NC(C)(C)c3csc(NS(=O)(=O)C4CC4)n3)c(OC)c2)n1 [R7, N-(2-(2-(cyclopropanesulfonamido)thiazol-4-yl)propan-2-yl)-4-(6-ethoxypyrazin-2-yl)-2-methoxybenzamide] |  |
|  | +++ (>60 fold (+++)) | O=C(NC1(c2csc(NS(=O)(=O)C3CC3)n2)CC1)c1ccc(-c2cncc(C(F)(F)F)n2)cc1 [R84, N-(1-(2-(cyclopropanesulfon-amido)thiazol-4-yl)cyclopropyl)-4-(6-(trifluoromethyl)pyrazin-2-yl)benzamide] |  |
|  | ++ (>30-60 fold (++)) | CCOc1cncc(-c2ccc(C(=O)NC(CCOC)c3csc(NS(=O)(=O)C4CC4)n3)cc2)n1 (centres unmarked) [R90, N-(1-(2-(cyclopropanesulfon-amido)thiazol-4-yl)-3-methoxypropyl)-4-(6-ethoxy-pyrazin-2-yl)benzamide] |  |
